In PubChem BioAssay (NCI):
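At the GI50, growth is halved. TGI marks complete inhibition of growth.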

Experiments:
Experiment in all cases: inhibition of tumour cell growth, NCI panel, 384-well format
[1] = tested on: DU-145 prostate
[2] = tested on: SK-OV-3 ovarian
[3] = tested on: OVCAR-5 ovarian
[4] = tested on: OVCAR-4 ovarian
[5] = tested on: SF-268 CNS
[6] = tested on: HOP-62 NSCLC
[7] = tested on: A549 NSCLC
[8] = tested on: MALME-3M melanoma
[9] = tested on: CAKI-1 renal
[10] = tested on: M14 melanoma
[11] = tested on: HCT-116 colon
[12] = tested on: HS 578T breast
[13] = tested on: SF-539 CNS
[14] = tested on: UO-31 renal
[15] = tested on: PC-3 prostate
[16] = tested on: HL-60(TB) leukemia
[17] = tested on: NCI-H226 lung
[18] = tested on: K-562 leukemia
[19] = tested on: SK-MEL-5 melanoma
[20] = tested on: RXF 393 renal
[21] = tested on: MDA-MB-468 breast
[22] = tested on: SNB-75 CNS
[23] = tested on: NCI-H322M lung
[24] = tested on: TK-10 renal
[25] = tested on: COLO 205 colon
[26] = tested on: MOLT-4 leukemia
[27] = tested on: MDA-MB-435 melanoma
[28] = tested on: MDA-MB-231 breast
[29] = tested on: NCI-H460 NSCLC
[30] = tested on: LOX IMVI melanoma
[31] = tested on: IGROV1 ovarian
[32] = tested on: SN12C renal
[33] = tested on: CCRF-CEM leukemia
[34] = tested on: BT-549 breast
[35] = tested on: HCT-15 colon
[36] = tested on: EKVX NSCLC
[37] = tested on: 786-0 renal
[38] = tested on: UACC-257 melanoma
[39] = tested on: KM12 colon
[40] = tested on: HT29 colon
[41] = tested on: SF-295 CNS
[42] = tested on: OVCAR-8 ovarian
[43] = tested on: NCI-H23 lung
[44] = tested on: HOP-92 NSCLC
[45] = tested on: A498 renal
[46] = tested on: OVCAR-3 ovarian
[47] = tested on: SK-MEL-28 melanoma
[48] = tested on: HCC-2998 colon
[49] = tested on: MCF7 breast
[50] = tested on: NCI/ADR-RES ovarian
[51] = tested on: ACHN renal
[52] = tested on: SNB-19 CNS

Cn1cc(C2=C(c3cn(C4CCN(Cc5ccccn5)CC4)c4ccccc34)C(=O)NC2=O)c2ccccc21
GI50 [1]: 2.65 µM
TGI [1]: > 100 µM
GI50 [2]: 2.52 µM
TGI [2]: > 100 µM
GI50 [3]: > 100 µM
TGI [3]: > 100 µM
GI50 [4]: 3.33 µM
TGI [4]: > 100 µM
GI50 [5]: 3 µM
TGI [5]: 7.84 µM
GI50 [6]: 3.22 µM
TGI [6]: > 100 µM
GI50 [7]: 5.18 µM
TGI [7]: > 100 µM
GI50 [8]: 2.84 µM
TGI [8]: 7.71 µM
GI50 [9]: 3.99 µM
TGI [9]: > 100 µM
GI50 [10]: 2.94 µM
TGI [10]: 9.21 µM
GI50 [11]: 0.645 µM
TGI [11]: > 100 µM
GI50 [12]: 2.22 µM
TGI [12]: 5.08 µM
GI50 [13]: 1.2 µM
TGI [13]: > 100 µM
GI50 [14]: 1.11 µM
TGI [14]: > 100 µM
GI50 [15]: 2.98 µM
TGI [15]: > 100 µM
GI50 [16]: 0.713 µM
TGI [16]: 2.54 µM
GI50 [17]: 3.31 µM
TGI [17]: > 100 µM
GI50 [18]: 0.454 µM
TGI [18]: 1.58 µM
GI50 [19]: 0.372 µM
TGI [19]: 95.5 µM
GI50 [20]: 2.06 µM
TGI [20]: 4.85 µM
GI50 [21]: 0.274 µM
TGI [21]: 0.593 µM
GI50 [22]: 1.41 µM
TGI [22]: 7.12 µM
GI50 [23]: 5.75 µM
TGI [23]: > 100 µM
GI50 [24]: 2.7 µM
TGI [24]: > 100 µM
GI50 [25]: 4.14 µM
TGI [25]: > 100 µM
GI50 [26]: 1.9 µM
TGI [26]: 3.35 µM
GI50 [27]: 0.421 µM
TGI [27]: 39.4 µM
GI50 [28]: 4.21 µM
TGI [28]: > 100 µM
GI50 [29]: 0.344 µM
TGI [29]: 84 µM
GI50 [30]: 3.1 µM
TGI [30]: > 100 µM
GI50 [31]: 3.57 µM
TGI [31]: > 100 µM
GI50 [32]: 1.26 µM
TGI [32]: > 100 µM
GI50 [33]: 0.403 µM
TGI [33]: 1.24 µM
GI50 [34]: 1.6 µM
TGI [34]: > 100 µM
GI50 [35]: 0.623 µM
TGI [35]: > 100 µM
GI50 [36]: 0.917 µM
TGI [36]: > 100 µM
GI50 [37]: 3.31 µM
TGI [37]: > 100 µM
GI50 [38]: > 100 µM
TGI [38]: > 100 µM
GI50 [39]: 3.93 µM
TGI [39]: > 100 µM
GI50 [40]: 3.29 µM
TGI [40]: > 100 µM
GI50 [41]: 4.48 µM
TGI [41]: > 100 µM
GI50 [42]: 6.7 µM
TGI [42]: > 100 µM
GI50 [43]: 5.28 µM
TGI [43]: > 100 µM
GI50 [44]: 4.24 µM
TGI [44]: > 100 µM
GI50 [45]: 0.718 µM
TGI [45]: 7.71 µM
GI50 [46]: 0.5 µM
TGI [46]: 3.36 µM
GI50 [47]: 2.89 µM
TGI [47]: > 100 µM
GI50 [48]: 1.5 µM
TGI [48]: 12.4 µM
GI50 [49]: 2.98 µM
TGI [49]: > 100 µM
GI50 [50]: 3.33 µM
TGI [50]: > 100 µM
GI50 [51]: 8.73 µM
TGI [51]: > 100 µM
GI50 [52]: 2.61 µM
TGI [52]: > 100 µM
